Source: ChEMBL document CHEMBL1135285, “Synthesis and structure-activity relationships of a novel series of HIV-1 protease inhibitors encompassing ABT-378 (Lopinavir)” (Bioorg Med Chem Lett, 2002)

Tests used:
MT4 = test: Compound was tested for antiviral activity against HIV-IIIB in MT-4 cells in presence of 50% human serum; format: functional, cell-based
[1] = target: Human immunodeficiency virus type 1 protease (Human immunodeficiency virus 1) (UniProt Q72874); test: Inhibition of HIV protease at 0.5 nM

Row | inhibition [1] [%] | Compound | EC50 (MT4) [µM]
1 | 84 | Cc1ccccc1OCC(=O)N[C@H](Cc1ccccc1)[C@H](O)C[C@@H](Cc1ccccc1)NC(=O)[C@@H](C(C)C)N1CCCNC1=O | 0.43
2 | 75 | Cc1ccnc(C)c1OCC(=O)N[C@H](Cc1ccccc1)[C@H](O)C[C@@H](Cc1ccccc1)NC(=O)[C@@H](C(C)C)N1CCCNC1=O | 0.77
3 | 55 | Cc1cccc(C)c1SCC(=O)N[C@H](Cc1ccccc1)[C@H](O)C[C@@H](Cc1ccccc1)NC(=O)[C@@H](C(C)C)N1CCCNC1=O | 4.1
4 | 70 | Cc1cccc(C)c1CCC(=O)N[C@H](Cc1ccccc1)[C@H](O)C[C@@H](Cc1ccccc1)NC(=O)[C@@H](C(C)C)N1CCCNC1=O | 2.6

More lines, now with the values behind:

Row | Compound | inhibition [1] [%] | EC50 (MT4) [µM]
5 | Cc1ncnc(C)c1OCC(=O)N[C@H](Cc1ccccc1)[C@H](O)C[C@@H](Cc1ccccc1)NC(=O)[C@@H](C(C)C)N1CCCNC1=O | 79 | 4.2
6 | CC(C)[C@H](C(=O)N[C@H](Cc1ccccc1)C[C@@H](O)[C@@H](Cc1ccccc1)NC(=O)COc1c(Cl)cccc1Cl)N1CCCNC1=O | 87 | 2.8
7 | Cc1cccc(C)c1OCC(=O)N[C@@H](Cc1ccccc1)[C@@H](O)C[C@H](Cc1ccccc1)NC(=O)[C@H](C(C)C)N1CCCNC1=O (single isomer, unassigned) [LOPINAVIR] |  | 0.1
8 | CC(C)[C@H](C(=O)N[C@H](Cc1ccccc1)C[C@@H](O)[C@@H](Cc1ccccc1)NC(=O)COc1ccccc1)N1CCCNC1=O | 67 | 1.3
9 | COc1cccc(OC)c1OCC(=O)N[C@H](Cc1ccccc1)[C@H](O)C[C@@H](Cc1ccccc1)NC(=O)[C@@H](C(C)C)N1CCCNC1=O | 38 | 14
10 | Cc1cc(C)c(OCC(=O)N[C@H](Cc2ccccc2)[C@H](O)C[C@@H](Cc2ccccc2)NC(=O)[C@@H](C(C)C)N2CCCNC2=O)c(C)c1 | 85 | 0.39
11 | Cc1cc(F)cc(C)c1OCC(=O)N[C@H](Cc1ccccc1)[C@H](O)C[C@@H](Cc1ccccc1)NC(=O)[C@@H](C(C)C)N1CCCNC1=O | 90 | 0.49
12 | Cc1cc(C)cc(OCC(=O)N[C@H](Cc2ccccc2)[C@H](O)C[C@@H](Cc2ccccc2)NC(=O)[C@@H](C(C)C)N2CCCNC2=O)c1 | 37 | 38
13 | Cc1cc(N)cc(C)c1OCC(=O)N[C@H](Cc1ccccc1)[C@H](O)C[C@@H](Cc1ccccc1)NC(=O)[C@@H](C(C)C)N1CCCNC1=O | 86 | 0.16
